Measured values taken from PMC6154319, “Intestinal Transport Characteristics and Metabolism of C-Glucosyl Dihydrochalcone, Aspalathin” (Molecules : A Journal of Synthetic Chemistry and Natural …, 2017).
Marks after values point to notes of the source that are not given here.

Legend:
Caco-2 monolayer = test: in vitro
Description: Validation of the Caco-2 transport experiments required consideration of three parameters, i.e., firstly, to determine the cytotoxic concentrations of synthetic aspalathin, secondly, the concentration of aspalathin required to ensure HPLC detection in the basolateral compartment, and finally, to assess whether the transport of aspalathin is concentration dependent.
Cells were cultured at 37 °C and 5% CO2 in 95% humidified air in Eagle’s Minimum Essential Medium (EMEM) containing sodium […] pyruvate, supplemented with 2 mM L-glutamine, 1% non-essential amino acids and 10% heat inactivated FBS. Cell cultures were split when 70%–80% confluent, using trypsin/ethylenediaminetetraacetic acid (EDTA). The culture medium, pre-warmed to 37 °C, was refreshed every 2–3 days. Cells were seeded at 1 × 10^4 cells/cm^2 and a sub-cultivation ratio of 1:3 was routinely used. Cells were seeded with the addition of 1% penicillin/streptomycin mixture (10,000 units/mL potassium penicillin and 10,000 µg/mL streptomycin sulphate) at 4 × 10^4 cells/cm^2 onto 0.4 µm polycarbonate 6-well inserts with an insert area of 4.52 cm^2. Cells were used for transport experiments when TEER values across wells were >300 Ω, typically 21–23 days post confluence. Only passages 50–60 were used to prevent phenotypic drift.
(§1) The cell monolayers were equilibrated briefly with transport buffer, pH 6.0 (HBSS with 2-(N-morpholino) ethanesulphonic acid (MES)) on the apical side and pH 7.4 (HBSS with HEPES) on the basolateral side, to remove traces of the culture media. Following this, transport buffers were added for 30 min prior to the addition of treatment (inhibitors were added during this step when required, as well as during the subsequent treatment incubation step). After equilibration, the plates containing transport medium were incubated for 30 min at 37 °C at 5% CO2 in 95% humidified air and the TEER value of the monolayer determined. […] For basolateral-to-apical compartment studies, 2.4 mL of treatment at the same concentrations in HBSS (pH 7.4), was added to the basolateral compartment.
(§2) To assess whether aspalathin was co-transported with glucose, its transport (100 µM) at both high (20.5 mM) and low (5.5 mM) glucose concentrations, mimicking the intestinal lumen glucose concentrations pre- and post-meals, was monitored. This was followed by experiments performed in the presence and absence of SGLT1 (100 µM phloridzin), GLUT2 (100 µM phloretin) and efflux, PgP (100 µM verapamil) inhibitors.
(§3) Samples (1.2 mL) were withdrawn from the basolateral or the apical compartment to measure the concentration of aspalathin uptake and efflux, respectively at 0, 0.5, 1, 1.5, and 2 h under sink conditions (the sample aliquot replaced with equal volume of relevant transport buffer). Sample aliquots (350 µL) were frozen in liquid nitrogen after the addition of ascorbic acid (35 µL of 10% solution) and stored at −65 °C until HPLC analysis. Results were corrected for dilution and expressed as cumulative transport (% of initial dose) as a function of time. Papp (cm/s) for bi-directional transport studies was calculated as previously described. Transport of other major flavonoids in the matrices, i.e., nothofagin, the 3-deoxy analogue of aspalathin and its flavone derivatives, orientin and isoorientin, were also determined.
Lucifer yellow (final concentration 0.1 mM) was used as a membrane integrity marker and co-incubated with the compounds and extracts.
HPLC-DAD analysis of samples from the apical and basolateral compartments was performed in duplicate on an Agilent 1200 system as previously described. Basolateral and apical samples taken after 2 h with pure aspalathin were also analysed using LC-MS (parameters described in [42]) to determine whether aspalathin metabolites were formed in the Caco-2 model.
All experiments were performed in triplicate and the data expressed as mean ± SD, unless otherwise indicated.

[1] = Extended Clearance Classification System (ECCS) classification; conditions: weak acid, molecular weight higher than 400 g/mol
PgP = PgP (Homo sapiens, UniProt P08183); conditions: aspalathin 100 µM; 100 µM verapamil (PgP)
Description: as §1, §2, §3

Caco-2 cells = test: Cytotoxicity of aspalathin on Caco-2 cells (Vialight plus kit); assay type: cell-based, human; conditions: HBSS buffer pH 6.0, apical side; 2 h exposure
Description: Supplementary material for:
Intestinal Transport Characteristics and Metabolism of C-Glucosyl Dihydrochalcone, Aspalathin
Sandra Bowles 1,*, Elizabeth Joubert 2,3, Dalene de Beer 2,3, Johan Louw 1,4, Christel Brunschwig 5,6,7, Mathew Njoroge 5,6,7, Nina Lawrence 6, Lubbe Wiesner 7, Kelly Chibale 5,6,8,9, and Christo […]
1 Biomedical Research and Innovation Platform, South African Medical Research Council, Tygerberg, Cape Town, 7130, South Africa; johan.louw@mrc.ac.za (J.L.); christo.muller@mrc.ac.za (C.M.) 2 Plant Bioactives Group, Post-Harvest and Wine Technology Division, Agricultural Research Council, Infruitec-Nietvoorbij, Stellenbosch 7600, South Africa; JoubertL@arc.agric.za (E.J.); DBeerD@arc.agric.za […]
3 Department of Food Science, Stellenbosch University, Stellenbosch 7600, South Africa 4 Department of Biochemistry and Microbiology, University of Zululand, Kwa-Dlangezwa 3886, South […]
Caco-2 cells was assessed by the VialightTM plus kit. Caco-2 cells were seeded at a density of 4 x 10^4 cells/cm2 into white clear bottomed 96-well plates and cytotoxicity was assessed according to the manufacturer’s recommendation after 12–13 days. […]

PgP, sequence (P08183 whole entry): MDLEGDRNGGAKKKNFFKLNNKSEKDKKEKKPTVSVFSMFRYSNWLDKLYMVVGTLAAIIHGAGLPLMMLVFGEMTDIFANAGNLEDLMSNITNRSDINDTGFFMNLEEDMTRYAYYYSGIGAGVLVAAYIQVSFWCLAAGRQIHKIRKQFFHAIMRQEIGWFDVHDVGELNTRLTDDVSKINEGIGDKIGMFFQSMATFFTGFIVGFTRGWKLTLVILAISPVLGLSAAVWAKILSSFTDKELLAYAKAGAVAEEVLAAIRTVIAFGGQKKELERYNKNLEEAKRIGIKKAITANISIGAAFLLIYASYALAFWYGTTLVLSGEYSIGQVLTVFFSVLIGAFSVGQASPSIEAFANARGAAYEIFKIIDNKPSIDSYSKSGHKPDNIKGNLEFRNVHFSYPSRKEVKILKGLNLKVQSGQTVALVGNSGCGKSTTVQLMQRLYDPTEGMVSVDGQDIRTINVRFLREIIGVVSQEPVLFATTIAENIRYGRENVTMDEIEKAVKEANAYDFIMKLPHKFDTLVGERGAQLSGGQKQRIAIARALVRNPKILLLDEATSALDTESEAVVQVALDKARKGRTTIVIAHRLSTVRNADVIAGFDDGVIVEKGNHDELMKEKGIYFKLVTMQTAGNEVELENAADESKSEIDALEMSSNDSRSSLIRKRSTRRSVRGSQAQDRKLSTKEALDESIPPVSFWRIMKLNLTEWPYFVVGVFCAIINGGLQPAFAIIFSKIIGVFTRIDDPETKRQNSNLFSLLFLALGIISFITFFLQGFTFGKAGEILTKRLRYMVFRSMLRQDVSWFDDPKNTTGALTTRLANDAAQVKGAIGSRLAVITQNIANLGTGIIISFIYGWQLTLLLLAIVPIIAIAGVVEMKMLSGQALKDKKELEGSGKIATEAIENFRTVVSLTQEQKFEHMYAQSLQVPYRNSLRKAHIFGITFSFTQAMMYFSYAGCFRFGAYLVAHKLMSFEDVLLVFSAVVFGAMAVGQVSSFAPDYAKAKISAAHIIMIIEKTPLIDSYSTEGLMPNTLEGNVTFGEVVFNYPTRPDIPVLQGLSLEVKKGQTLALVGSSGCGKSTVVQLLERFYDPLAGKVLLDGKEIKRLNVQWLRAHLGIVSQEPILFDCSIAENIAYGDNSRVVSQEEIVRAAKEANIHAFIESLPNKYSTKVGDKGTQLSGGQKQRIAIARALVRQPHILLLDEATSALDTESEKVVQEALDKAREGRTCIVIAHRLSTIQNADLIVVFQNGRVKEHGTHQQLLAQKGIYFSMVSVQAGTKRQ

## O=C(CCc1ccc(O)c(O)c1)c1c(O)cc(O)c([C@@H]2O[C@H](CO)[C@@H](O)[C@H](O)[C@H]2O)c1O [Aspalathin]
Caco-2 monolayer; Caco-2
  Papp a-b with high glucose: 2.90 ± 0.75 × 10^−7 cm/s
  Papp a-b − Inhibitor: 1.73 ± 0.97 ×10^−6 cm/s
  Papp b-a: 2.15 ± 0.23 × 10^—6 cm/s
  Papp b-a − Inhibitor: 2.09 ± 0.23 ×10^−6 cm/s
Caco-2 monolayer; buffered solution of synthetic aspalathin, 1 µM
  Papp (cm/s) a-b × 10^−6: 2.28 ± 0.09 cm/s × 10^−6
Caco-2 monolayer; from aspalathin-enriched green rooibos extract SB1, 0.38 mg/mL (153, 11, 17, 9 µM aspalathin, nothofagin, isoorientin, orientin)
  Papp (cm/s) a-b × 10^−6: 2.00 ± 1.10 cm/s × 10^−6
Caco-2 monolayer; from semi-purified fraction PEF1, 0.15 mg/mL (149, 21, 12, 8 µM aspalathin, nothofagin, isoorientin, orientin)
  Papp (cm/s) a-b × 10^−6: 2.11 ± 0.20 cm/s × 10^−6
[1]
  ECCS class: 3B
PgP
  Efflux Ratio + Inhibitor (verapamil): 1.1 ^c
  Papp a-b + Inhibitor (verapamil): 1.84 ± 0.20 ^c ×10^−6 cm/s
  Papp b-a + Inhibitor (verapamil): 1.94 ± 0.68 ^c ×10^−6 cm/s
Caco-2 cells
  maximum concentration not cytotoxic to Caco-2 cells (>80% viability): 150 µM
